Assays:
[1] = molecular target: T1, Nuclear receptor ROR-gamma (Homo sapiens, UniProt P51449); assay: Inhibition of human full-length eGFP-tagged RORgammat expressed in human HUT78 T-cells assessed as inhibition of PMA/CD3 monoclonal antibody stimulated IL-17 secretion after 48 hrs by ELISA; format: cell-based
T1 sequence (P51449 whole entry): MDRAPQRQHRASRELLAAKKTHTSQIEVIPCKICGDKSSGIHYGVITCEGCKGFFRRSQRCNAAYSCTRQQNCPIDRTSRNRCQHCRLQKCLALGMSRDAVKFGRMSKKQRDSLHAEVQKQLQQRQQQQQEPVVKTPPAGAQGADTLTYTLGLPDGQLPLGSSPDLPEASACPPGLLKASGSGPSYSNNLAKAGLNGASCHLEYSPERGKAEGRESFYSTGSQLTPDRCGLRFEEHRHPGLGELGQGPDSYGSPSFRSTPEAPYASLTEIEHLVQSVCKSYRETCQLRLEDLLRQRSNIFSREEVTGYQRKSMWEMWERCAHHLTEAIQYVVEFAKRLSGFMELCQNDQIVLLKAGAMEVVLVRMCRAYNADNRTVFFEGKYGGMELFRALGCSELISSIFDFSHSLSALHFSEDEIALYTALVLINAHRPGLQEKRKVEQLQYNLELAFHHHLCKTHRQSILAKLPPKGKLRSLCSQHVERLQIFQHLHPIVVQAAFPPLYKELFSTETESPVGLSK

[2] = molecular target: Cytochrome P450 3A4 (Homo sapiens, UniProt P08684); assay: Time dependent inhibition of CYP3A4 (unknown origin); format: ADME; design: concentration or dose not given beside the values
[3] = molecular target: T2, Nuclear receptor subfamily 1 group I member 2 (Homo sapiens, UniProt O75469); assay: Inhibition of Gal4-tagged PXR LBD (unknown origin) by cell based luciferase reporter gene assay
T2 sequence (O75469 whole entry): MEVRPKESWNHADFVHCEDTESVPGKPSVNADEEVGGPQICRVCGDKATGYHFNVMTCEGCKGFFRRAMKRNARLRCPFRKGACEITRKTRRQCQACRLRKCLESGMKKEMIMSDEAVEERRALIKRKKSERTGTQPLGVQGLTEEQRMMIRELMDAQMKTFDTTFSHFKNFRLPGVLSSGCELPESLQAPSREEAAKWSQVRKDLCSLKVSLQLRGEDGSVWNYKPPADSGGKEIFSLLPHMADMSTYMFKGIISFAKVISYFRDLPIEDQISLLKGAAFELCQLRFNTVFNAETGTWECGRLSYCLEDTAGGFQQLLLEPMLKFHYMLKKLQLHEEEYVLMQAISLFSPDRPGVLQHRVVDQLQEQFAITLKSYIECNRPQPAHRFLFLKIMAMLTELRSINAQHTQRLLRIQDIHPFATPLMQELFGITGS

[4] = molecular target: T3, Peroxisome proliferator-activated receptor gamma (Homo sapiens, UniProt P37231); assay: Inhibition of Gal4-tagged PPARgamma LBD (unknown origin) by cell based luciferase reporter gene assay
T3 sequence (P37231 whole entry): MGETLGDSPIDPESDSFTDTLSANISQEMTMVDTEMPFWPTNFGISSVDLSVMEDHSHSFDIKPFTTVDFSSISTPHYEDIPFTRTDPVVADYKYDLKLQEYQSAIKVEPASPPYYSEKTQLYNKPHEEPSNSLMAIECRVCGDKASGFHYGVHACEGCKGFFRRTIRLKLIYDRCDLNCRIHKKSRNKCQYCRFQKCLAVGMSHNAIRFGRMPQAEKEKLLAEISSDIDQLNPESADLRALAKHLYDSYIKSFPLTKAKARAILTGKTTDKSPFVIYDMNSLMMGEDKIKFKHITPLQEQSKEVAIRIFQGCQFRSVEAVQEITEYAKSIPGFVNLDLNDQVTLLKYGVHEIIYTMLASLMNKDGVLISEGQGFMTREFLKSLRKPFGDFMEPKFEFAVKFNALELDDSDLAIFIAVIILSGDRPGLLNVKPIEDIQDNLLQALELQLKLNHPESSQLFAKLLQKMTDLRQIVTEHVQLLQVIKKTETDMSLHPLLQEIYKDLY

[5] = Inverse agonist activity at RORgammat in rat whole blood assessed as reduction in Con A/IL-23-stimulated IL-17 secretion after 72 hrs by ELISA
[6] = molecular target: T1, Nuclear receptor ROR-gamma; assay: Displacement of RIP140 cofactor peptide from human His6-tagged RORgammat LBD (264 to 518 residues) by TR-FRET assay
[7] = molecular target: T4, Progesterone receptor (Homo sapiens, UniProt P06401); assay: Inhibition of Gal4-tagged PR LBD (unknown origin) by cell based luciferase reporter gene assay
T4 sequence (P06401 whole entry): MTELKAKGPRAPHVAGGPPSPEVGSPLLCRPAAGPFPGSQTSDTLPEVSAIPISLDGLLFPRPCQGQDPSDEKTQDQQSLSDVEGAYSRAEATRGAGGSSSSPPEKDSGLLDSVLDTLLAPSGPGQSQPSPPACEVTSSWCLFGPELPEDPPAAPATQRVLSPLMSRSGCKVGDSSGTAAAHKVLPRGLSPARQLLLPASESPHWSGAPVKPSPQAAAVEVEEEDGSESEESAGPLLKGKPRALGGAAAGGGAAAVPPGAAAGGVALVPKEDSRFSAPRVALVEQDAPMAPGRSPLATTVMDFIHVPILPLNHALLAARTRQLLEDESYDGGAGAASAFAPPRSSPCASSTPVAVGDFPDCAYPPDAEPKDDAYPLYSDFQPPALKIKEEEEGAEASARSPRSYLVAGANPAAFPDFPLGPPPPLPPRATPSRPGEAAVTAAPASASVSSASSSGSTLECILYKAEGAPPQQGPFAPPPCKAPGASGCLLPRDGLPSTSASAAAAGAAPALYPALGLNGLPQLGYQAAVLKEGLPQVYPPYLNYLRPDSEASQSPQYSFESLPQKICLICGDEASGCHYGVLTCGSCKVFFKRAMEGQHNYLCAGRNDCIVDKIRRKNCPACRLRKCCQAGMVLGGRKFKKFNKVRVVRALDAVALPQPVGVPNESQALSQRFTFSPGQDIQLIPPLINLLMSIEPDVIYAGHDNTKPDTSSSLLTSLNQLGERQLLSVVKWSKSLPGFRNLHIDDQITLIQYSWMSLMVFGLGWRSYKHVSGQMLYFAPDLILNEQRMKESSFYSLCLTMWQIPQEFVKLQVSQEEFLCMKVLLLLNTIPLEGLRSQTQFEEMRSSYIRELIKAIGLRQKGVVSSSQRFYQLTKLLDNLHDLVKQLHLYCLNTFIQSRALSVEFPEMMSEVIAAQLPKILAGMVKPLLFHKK

[8] = molecular target: T1, Nuclear receptor ROR-gamma; assay: Inhibition of Gal4-tagged RORgammat LBD (unknown origin) by cell based luciferase reporter gene assay
[9] = Clearance in Sprague-Dawley rat at 1 mg/kg, iv; format: ADME, organism-based; settings: in vivo
[10] = Distribution coefficient of the compound, high-throughput logD using octanol-buffer at pH 7.4 by LC-MS/MS analysis shake flask method; format: physicochemical
[11] = Tmax in DA rat at 5 mg/kg, po; format: ADME, organism-based; settings: in vivo
[12] = system: Rattus norvegicus; assay: Anti-inflammatory activity in mBSA/CFA-immunized Lewis rat delayed-type hypersensitivity model assessed as reduction in frequencies of IL-17-producing draining lymph node cells at 1 to 15 mg/kg, po via gavage administered twice daily for 2 days treated prior to mBSA/CFA challenge; format: functional, organism-based

Sequence of Cytochrome P450 3A4 (P08684 whole entry, the tested form may be a part): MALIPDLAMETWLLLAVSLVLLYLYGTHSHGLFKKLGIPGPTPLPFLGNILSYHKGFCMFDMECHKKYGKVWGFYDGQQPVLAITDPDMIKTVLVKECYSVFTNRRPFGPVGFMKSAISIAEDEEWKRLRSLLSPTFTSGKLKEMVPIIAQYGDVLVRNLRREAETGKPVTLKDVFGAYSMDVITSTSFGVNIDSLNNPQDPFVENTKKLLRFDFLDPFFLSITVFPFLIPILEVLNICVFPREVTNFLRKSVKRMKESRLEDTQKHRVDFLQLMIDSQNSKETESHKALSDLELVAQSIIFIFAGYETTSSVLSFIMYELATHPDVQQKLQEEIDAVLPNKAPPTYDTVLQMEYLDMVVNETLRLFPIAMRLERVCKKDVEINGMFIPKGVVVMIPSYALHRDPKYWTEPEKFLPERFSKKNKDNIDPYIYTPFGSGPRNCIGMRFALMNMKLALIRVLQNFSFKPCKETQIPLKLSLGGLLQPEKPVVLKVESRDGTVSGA

IC50 [1]: 70 nM | K [2]: 0.005 min⁻¹ | IC50 [3]: > 10000 nM | IC50 [4]: > 10000 nM | IC50 [5]: 702 nM | IC50 [6]: 5 nM | IC50 [7]: > 10000 nM | IC50 [8]: 151 nM | clearance [9]: 2.7 mL/min/kg | logD [10]: 2 | Tmax [11]: 1 h
Structure (SMILES): Cc1c(C2(C(F)(F)F)CC2)nc(C2CC2)n1-c1c(Cl)ccc(N2CC3(CC(C(=O)O)C3)C2)c1Cl (single isomer, unassigned; atropisomer)
Activity [12]: Dose-dependent effect

Reference: ChEMBL document CHEMBL4321852, “Structure-Based and Property-Driven Optimization of N-Aryl Imidazoles toward Potent and Selective Oral RORγt Inhibitors” (J Med Chem, 2019)
